Measured values reported in patent US20240207427A1, “SELECTIVE DRUG RELEASE FROM INTERNALIZED CONJUGATES OF BIOLOGICALLY ACTIVE COMPOUNDS” (priority 2021, published 2024).
Where two headings read alike, the source gives them in different places.

Tests used:
Assay type in all cases: cell-based
[1] = system: anaplastic large cell lymphoma cells (DEL); experiment: In vitro potency (CellTiter-Glo, 96 h), DEL
In short: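 Cells in log-phase growth seeded 24 h in RPMI 1640 with 20% FBS, then exposed to serially diluted ADC or CPT free drug for 96 h at 37 °C. Growth inhibition read by CellTiter-Glo luminescence; IC50 reported in ng/mL or nmol/L.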

[2] = system: pancreatic cancer cells (BxPC3); experiment: In vitro potency (CellTiter-Glo, 96 h), BxPC3; conditions: Homo sapiens, BXPC-3, 96 h
In short: (§1)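 Seed log-phase cells 24 h (RPMI 1640, 20% FBS); add ADC serial dilutions; incubate 96 h, 37 °C; read luminescence; IC50 in ng/mL.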

[3] = system: anaplastic large cell lymphoma cells (Karpas299); experiment: In vitro potency (CellTiter-Glo, 96 h), Karpas299; conditions: Homo sapiens, KARPAS-299, 96 h
In short: (§2)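 Four-day continuous exposure at 37 °C to serially diluted ADC or free camptothecin payload, in RPMI 1640 with 20% FBS after 24 h pre-plating. Luminescent signal gave IC50 (ng/mL; nmol/L).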

melanoma cells (A2058) = experiment: In vitro potency (CellTiter-Glo, 96 h), A2058; conditions: Homo sapiens, A2058, 96 h
Description: (§3) In vitro potency was assessed on multiple cancer cell lines. All cell lines were authenticated by STR profiling at IDEXX Bioresearch and cultured for no more than 2 months after resuscitation. Cells cultured in log-phase growth were seeded for 24 hours in 96-well plates containing […] RPMI 1640 supplemented with 20% FBS. Serial dilutions of antibody-drug conjugates in cell culture media were prepared at 4× working concentrations, and 50 μL of each dilution was added to the 96-well plates. Following addition of test articles, cells were incubated with test articles for 4 days at 37 0° C. After 96 hours, growth inhibition was assessed by CellTiterGlo® (Promega, Madison, WI) and luminescence was measured on a plate reader.
(§4) In Table 7, IC50 values for ADCs are given in ng/mL. Cell viability was determined by CellTiter-Glo staining after 96 h exposure to ADC. ND=Not Determined. Ag2 is an antibody targeting a ubiquitous and readily internalizable antigen. The cancer cell lines tested are renal carcinoma cells (786-0), melanoma cells (A2058), pancreatic cancer cells (BxPC3), non-small-cell lung cancer cells (Calu1), anaplastic large cell lymphoma cells (DEL, DELBVR, Karpas299), Hodgkin's lymphoma cells (L540cy), (Ls174T), breast cancer cells (MDA-MB-231), acute myeloid leukemia cells (MOLM-13), and B-lymphocyte cancer cells (SU-DHL4).
as §3, with “FBS.” for “FBS. Serial dilutions of antibody-drug conjugates in cell culture media were prepared at 4× working concentrations, and 50 μL of each dilution was added to the 96-well plates.”
(§5) Cell viability was determined by CellTiter-Glo staining after 96 h exposure to the compound. ND=Not Determined. The cancer cell lines tested are renal carcinoma cells (786-0), melanoma cells (A2058), pancreatic cancer cells (BxPC3), non-small-cell lung cancer cells (Calu1), anaplastic large cell lymphoma cells (DEL, DELBVR, Karpas299), Hodgkin's lymphoma cells (L540cy), (Ls 174T), breast cancer cells (MDA-MB-231), acute myeloid leukemia cells (MOLM-13), B-lymphocyte cancer cells (SU-DHL4), multiple myeloma cells (MM.1R), (U266), and melanoma cells (SK-MEL-5).
as §3, with “37°” for “37 0°”
(§6) In the following Tables IC50 values for ADCs and CPT free drugs are given in ng/mL and nmol/L concentrations. Cell viability was determined by CellTiter-Glo staining after 96 h exposure to ADC or CPT free drug.
(§7) Cell viability was determined by CellTiter-Glo staining after 96 h exposure to ADC. ND=Not Determined.

[4] = system: anaplastic large cell lymphoma cells (DELBVR); experiment: In vitro potency (CellTiter-Glo, 96 h), DELBVR
In short: as §2

[5] = system: acute myeloid leukemia cells (MOLM-13); experiment: In vitro potency (CellTiter-Glo, 96 h), MOLM-13; conditions: Homo sapiens, MOLM-13, 96 h
In short: as §1

[6] = system: Hodgkin's lymphoma cells (L540cy); experiment: In vitro potency (CellTiter-Glo, 96 h), L540cy
In short: as §2

[7] = system: B-lymphocyte cancer cells (SU-DHL4); experiment: In vitro potency (CellTiter-Glo, 96 h), SU-DHL-4; conditions: Homo sapiens, SU-DHL-4, 96 h
In short: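 Following a 24 h seeding period in 20% FBS-supplemented RPMI 1640, log-phase cells receive graded concentrations of conjugate. Incubation runs for 4 days at 37 °C, after which luminescence is recorded and IC50 calculated in ng/mL.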

[8] = system: renal carcinoma cells (786-O); experiment: In vitro potency (CellTiter-Glo, 96 h), 786-O; conditions: Homo sapiens, 786-0, 96 h
In short: as §2

[9] = system: breast cancer cells (MDA-MB-231); experiment: In vitro potency (CellTiter-Glo, 96 h), MDA-MB-231; conditions: Homo sapiens, MDA-MB-231, 96 h
In short: as §2

[10] = system: non-small-cell lung cancer cells (Calu1); experiment: In vitro potency (CellTiter-Glo, 96 h), Calu1; conditions: Homo sapiens, Calu-1, 96 h
Description: as §3, §4
as §3, with “FBS.” for “FBS. Serial dilutions of antibody-drug conjugates in cell culture media were prepared at 4× working concentrations, and 50 μL of each dilution was added to the 96-well plates.”
as §5
as §3, with “37°” for “37 0°”
as §6, §7

Ls174T cells = experiment: In vitro potency (CellTiter-Glo, 96 h), Ls174T; conditions: Homo sapiens, LS174T, CPT free drugs
In short: as §2

[11] = CPT free drugs, Table 24, CellTiter-Glo after 96 h exposure, read-out: IC50 (nmol/L) DEL
[12] = CPT free drugs, Table 24, CellTiter-Glo after 96 h exposure, read-out: IC50 (nmol/L) BxPC3
[13] = CPT free drugs, Table 24, CellTiter-Glo after 96 h exposure, read-out: IC50 (nmol/L) Karpas299
[14] = CPT free drugs, Table 24, CellTiter-Glo after 96 h exposure, read-out: IC50 (nmol/L) A2058
[15] = CPT free drugs, Table 24, CellTiter-Glo after 96 h exposure, read-out: IC50 (nmol/L) DELBVR
[16] = CPT free drugs, Table 24, CellTiter-Glo after 96 h exposure, read-out: IC50 (nmol/L) MOLM-13
[17] = CPT free drugs, Table 24, CellTiter-Glo after 96 h exposure, read-out: IC50 (nmol/L) L540cy
[18] = CPT free drugs, Table 24, CellTiter-Glo after 96 h exposure, read-out: IC50 (nmol/L) SU-DHL-4
[19] = CPT free drugs, Table 24, CellTiter-Glo after 96 h exposure, read-out: IC50 (nmol/L) 786-O
[20] = CPT free drugs, Table 24, CellTiter-Glo after 96 h exposure, read-out: IC50 (nmol/L) MDAMB231
[21] = CPT free drugs, Table 24, CellTiter-Glo after 96 h exposure, read-out: IC50 (nmol/L) Calu1

Q: How did the IC50 [1, 11] turn out when `CC[C@@]1(O)C(=O)OCc2c1cc1n(c2=O)Cc2c-1nc1ccccc1c2CN` [Compound 2ae] was run?
A: 5 nmol/L

Q: And the IC50 [2, 12]?
A: 23 nmol/L

Q: What about the IC50 [3, 13] of the same compound?
A: 14 nmol/L

Q: And the IC50 (melanoma cells (A2058); [14])?
A: 5 nmol/L

Q: What about the IC50 [4, 15] of the same compound?
A: 5 nmol/L

Q: And the IC50 [5, 16]?
A: 191 nmol/L

Q: And the IC50 [6, 17]?
A: 6 nmol/L

Q: And the IC50 [7, 18]?
A: 8 nmol/L

Q: What about the IC50 [8, 19] of the same compound?
A: 17 nmol/L

Q: What about the IC50 [9, 20] of the same compound?
A: 107 nmol/L

Q: And the IC50 [10, 21]?
A: 65 nmol/L

Q: With `CC[C@@]1(O)C(=O)OCc2c1cc1n(c2=O)Cc2c-1nc1cc3c(cc1c2CN)OCCO3` [Compound 2af] as the compound, how does the IC50 ([1]; read-out: IC50 (nmol/L) DEL, CPT free drugs, Table 24, CellTiter-Glo after 96 h exposure) read?
A: 1 nmol/L

Q: And the IC50 ([2]; read-out: IC50 (nmol/L) BxPC3, CPT free drugs, Table 24, CellTiter-Glo after 96 h exposure)?
A: 7 nmol/L

Q: And the IC50 ([3]; read-out: IC50 (nmol/L) Karpas299, CPT free drugs, Table 24, CellTiter-Glo after 96 h exposure)?
A: 6 nmol/L

Q: What about the IC50 (melanoma cells (A2058); read-out: IC50 (nmol/L) A2058) of the same compound?
A: 2 nmol/L

Q: And the IC50 ([4]; read-out: IC50 (nmol/L) DELBVR, CPT free drugs, Table 24, CellTiter-Glo after 96 h exposure)?
A: 1 nmol/L

Q: And the IC50 ([5]; read-out: IC50 (nmol/L) MOLM-13, CPT free drugs, Table 24, CellTiter-Glo after 96 h exposure)?
A: 32 nmol/L

Q: And the IC50 ([6]; read-out: IC50 (nmol/L) L540cy, CPT free drugs, Table 24, CellTiter-Glo after 96 h exposure)?
A: 3 nmol/L

Q: And the IC50 ([7]; read-out: IC50 (nmol/L) SU-DHL-4, CPT free drugs, Table 24, CellTiter-Glo after 96 h exposure)?
A: 2 nmol/L

Q: And the IC50 ([8]; read-out: IC50 (nmol/L) 786-O, CPT free drugs, Table 24, CellTiter-Glo after 96 h exposure)?
A: 7 nmol/L

Q: What about the IC50 ([9]; read-out: IC50 (nmol/L) MDAMB231, CPT free drugs, Table 24, CellTiter-Glo after 96 h exposure) of the same compound?
A: 39 nmol/L

Q: What about the IC50 ([10]; read-out: IC50 (nmol/L) Calu1) of the same compound?
A: 57 nmol/L

Q: What does the source list for `CC[C@@]1(O)C(=O)OCc2c1cc1n(c2=O)Cc2c-1nc1ccc3c(c1c2CN)OCCO3` [Compound 2ag]?
A: IC50 [1, 11]: 6 nmol/L; IC50 [2, 12]: 57 nmol/L; IC50 [3, 13]: 34 nmol/L; IC50 (melanoma cells (A2058); [14]): 10 nmol/L; IC50 [4, 15]: 13 nmol/L; IC50 [5, 16]: 63 nmol/L; IC50 [6, 17]: 15 nmol/L; IC50 [7, 18]: 16 nmol/L; IC50 [8, 19]: 35 nmol/L; IC50 [9, 20]: 177 nmol/L; IC50 [10, 21]: 153 nmol/L

Q: Which IC50 [1, 11] does the source give for `[2H]C1([2H])Oc2cc3nc4c(c(CN)c3cc2O1)Cn1c-4cc2c(c1=O)COC(=O)[C@]2(O)CC` [Compound 2an] here?
A: 0.2 nmol/L

Q: What about the IC50 [2, 12] of the same compound?
A: 1 nmol/L

Q: And the IC50 [3, 13]?
A: 1 nmol/L

Q: And the IC50 (melanoma cells (A2058); [14])?
A: 0.5 nmol/L

Q: And the IC50 [4, 15]?
A: 0.2 nmol/L

Q: And the IC50 [5, 16]?
A: 4 nmol/L

Q: And the IC50 [7, 18]?
A: 1 nmol/L

Q: What about the IC50 [8, 19] of the same compound?
A: 1 nmol/L

Q: What about the IC50 [9, 20] of the same compound?
A: 1 nmol/L

Q: What about the IC50 [10, 21] of the same compound?
A: 1 nmol/L

Q: What about the IC50 (Ls174T cells; Table 24, CellTiter-Glo after 96 h exposure, read-out: IC50 (nmol/L) Ls174T) of the same compound?
A: 6 nmol/L

Q: Which results are given for `CC[C@@]1(O)C(=O)OCc2c1cc1n(c2=O)Cc2c-1nc1cc3c(c(Br)c1c2CN)OCO3` [Compound 5c]?
A: IC50 ([1]; read-out: DEL IC50, Table 28, CPT free drugs, anaplastic large cell lymphoma cells DEL, CellTiter-Glo): 0.3 nmol/L; IC50 ([2]; read-out: BxPC3 IC50, Table 28, CPT free drugs, pancreatic cancer cells BxPC3, 96 h, CellTiter-Glo): 8 nmol/L; IC50 ([3]; read-out: Karpas299 IC50, Table 28, CPT free drugs, anaplastic large cell lymphoma cells Karpas299, 96 h, CellTiter-Glo): 1 nmol/L; IC50 (melanoma cells (A2058); read-out: A2058 IC50): 5 nmol/L; IC50 ([5]; read-out: MOLM-13 IC50, Table 28, CPT free drugs, acute myeloid leukemia cells MOLM-13, 96 h, CellTiter-Glo): 2 nmol/L; IC50 ([6]; read-out: L540cy IC50, Table 28, CPT free drugs, Hodgkin's lymphoma cells L540cy, CellTiter-Glo): 0.8 nmol/L; IC50 ([7]; read-out: SU-DHL-4 IC50, Table 28, CPT free drugs, B-lymphocyte cancer cells SU-DHL4, 96 h, CellTiter-Glo): 0.5 nmol/L; IC50 ([8]; read-out: 786-O IC50, Table 28, CPT free drugs, renal carcinoma cells 786-O, 96 h, CellTiter-Glo): 1 nmol/L; IC50 ([9]; read-out: MDAMB231 IC50, Table 28, CPT free drugs, breast cancer cells MDA-MB-231, 96 h, CellTiter-Glo): 2 nmol/L; IC50 ([10]; read-out: Calu1 IC50): 4 nmol/L; IC50 (Ls174T cells; 96 h, read-out: Ls174T IC50, Table 28, Ls174T cells, 96 h, CellTiter-Glo): 6 nmol/L
